pEC50: −log10 of the molar value. Structures can show the parent of a compound that is named as a salt. Where two headings read alike, the source gives them in different places.
Columns and labels:
[1] = Clinical bioavailability and corresponding concentration at maximum clinical dose; assay type: in vivo; conditions: 200 mg/day
DU145 [2] = conditions: 3 days exposure, 7 additional days, Hydra 50 µM, Pano 5 nM
Experimental: (§1) PCa cells were seeded in 6-well culture plates at specific concentrations for each cell line, as detailed in Table S1. After epidrug exposure, cells were incubated at 37 °C and 5% CO2 for 7 days and 10 days (LNCaP). Next, colonies were fixed in methanol (Supelco, Sigma-Aldrich, St. Louis, MO, USA), washed in PBS 1 × and stained with Hemacolor Solution II and III (Sigma-Aldrich, St. Louis, MO, USA). Three biological and three experimental replicates were used for each condition.

DU145 [3] = experiment: Invasion transwell assay; assay type: cell-based, Human; conditions: 24 h after seeding, Hydra 50 µM, Pano 5 nM, differences not statistically significant
Experimental: (§2) Cell invasion and migration were determined using Falcon® Permeable Support for 24-well Plate with 8.0 µm Transparent PET Membrane (Corning, New York, NY, USA) and Nunc® Cell Culture Inserts in 24-well Nunclon Delta surface plate (Sigma-Aldrich, St. Louis, MO, USA), respectively. Briefly, cells were harvested after treatment and were added to the upper chamber in serum-free medium, according to its optimized density (2.5 × 10^4 cells for every cell line except from LNCaP and 22Rv1 with 5 × 10^4 cells). Media containing 10% FBS was added to the lower chamber. After 24 h incubation at 37 °C and 5% CO2, the cells remaining on the upper side of the membrane were removed with cotton swabs, and those on the lower surface of the membrane were fixed in methanol (Supelco, Sigma-Aldrich, St. Louis, MO, USA), washed in PBS 1 × and stained with Crystal Violet (Active motif, Carlsbad, CA, USA). All the inserts were photographed with stereomicroscope Olympus S2X16 using a digital camera Olympus SC180 (scale bar 1 mm) at 12.5 × magnification. Five fields within each insert were selected and photographed at 115 × and further counted using ImageJ software Cell Counter Plugin. The mean of the counted cells was calculated, divided by the area of the microscope viewing field and then multiplied by the entire area of the insert. Three biological replicates were used for each condition.

PC-3 [4] = conditions: 24 h after seeding, Hydra 100 µM, Pano 10 nM, differences not statistically significant
Experimental: as §2

[5] = cited from earlier work
DU145 [6] = experiment: Alkaline comet assay; assay type: cell-based, Human
Experimental: After epidrug exposure, 30,000 cells were harvested by trypsinization, washed in PBS, re-suspended in 0.5% low-melting point agarose (w/v) and immediately placed on a microscope slide previously covered with 1% normal-melting point agarose (w/v). Then, the cells were immersed in lysis solution (2.5 M NaCl, 100 mM Na2EDTA, 10 mM Tris Base and 1% Triton X-100, pH 10) at 4 °C during 2 h in the dark. Afterwards, the slides were incubated in an alkaline electrophoresis buffer (300 mM NaOH, 1 mM Na2EDTA, pH 13) for 40 min at 4 °C to allow DNA unwinding. Single cell gel electrophoresis was performed on a horizontal electrophoresis platform for 30 min at 21 V, 300 mA, 4 °C. Next, slides were incubated in a neutralization buffer (0.4 M Tris-Base, pH 7.5) for 10 min, followed by staining with DAPI. Comet analysis was done using OpenComet v.1.3.1. Global DNA damage (SSB and DSB) evaluation was determined by measuring tail moment (tail % DNA × means of head × tail distance) and representative pictures taken with Olympus IX51 microscope at 200 × magnification (scale bar 50 μm). A sampling of at least 50 comets was included in the analysis. Three biological replicates were used for each condition.

DU145 [7] = experiment: Migration transwell assay; assay type: cell-based, Human; conditions: 24 h, Hydra 50 µM, Pano 5 nM, no significant differences
Experimental: as §2

LNCaP [8] = experiment: Cell viability assay (resazurin), dose-response; assay type: cell-based; conditions: Homo sapiens, 72 h, day 3, resazurin
Experimental: (§3) Briefly, PCa cell lines were seeded into 96-well plates at 5000 cells per well and incubated overnight at 37 °C in 5% CO2. Subsequently, cells were treated with a range of concentrations of each epidrug and their respective vehicle (dH2O for hydralazine; dimethyl sulfoxide (DMSO, Sigma-Aldrich, St. Louis, MO, USA) for panobinostat and culture medium for valproic acid) during three consecutive days, exchanging the medium every 24 h. Three experimental replicates of three biological replicates were used for each assay.
(§4) The cell viability was evaluated using resazurin (Canvax Biotech, Córdoba, Spain) at 0 h and 72 h of treatment. The culture medium was removed, and cells were incubated for three hours in the dark at 37 °C and 5% CO2 with 100 μL of 1:10 resazurin solution in culture medium. […] The OD values were corrected using resazurin solution as blank.

DU145 [9] = experiment: Cell viability assay (resazurin), dose-response; assay type: cell-based; conditions: Homo sapiens, DU-145, 72 h, DU145, day 3, resazurin
Experimental: as §3, §4

PC-3 [10] = experiment: Cell viability assay (resazurin), dose-response; assay type: cell-based; conditions: Homo sapiens, 72 h; PC-3, day 3, resazurin
Experimental: as §3, §4

22Rv1 = experiment: Cell viability assay (resazurin), dose-response; assay type: cell-based; conditions: Homo sapiens, 22Rv1, 72 h, 22Rv1, day 3, resazurin
Experimental: as §3, §4

DU145 [11] = experiment: Synergy assay, 6 × 6 checkerboard, growth inhibition by resazurin, CI by CompuSyn; assay type: cell-based; conditions: Homo sapiens, DU-145, 72 h, three days
Experimental: Each plate contained 6 × 6 dose matrix blocks with several epidrug concentrations below and above each respective EC50 value. […] The combination index (CI) was calculated using CompuSyn software, where <1 indicates synergism, =1 is an additive effect and >1 indicates antagonism.

DU145 [12] = experiment: Proliferation assay (BrdU ELISA); assay type: cell-based, Human; conditions: day 3, Hydra 50 µM, Pano 5 nM, alone or combined, compared with the vehicle
Experimental: The cell proliferation ELISA BrdU (5-bromo-2′ deoxyuridine) assay (Roche Applied Sciences, Germany) was performed at 72 h of treatment. Cells were plated into 96-well plates at a density of 5000 cells per well, and at 0 h and 72 h of treatment, cells were incubated with 10 µM BrdU labeling solution for 8 h. After removing the culture medium, the cells were fixed with FixDenat solution for 30 min at room temperature. Then, the anti-BrdU-POD antibody (1:100) was added. After three washes with PBS 1 ×, the immune complexes were detected by the subsequent substrate reaction. The reaction product was quantified in a microplate reader (FLUOstar Omega, BMG Labtech, Ortenberg, Germany) at a wavelength of 450 nm with background subtraction at 690 nm. All ODs were normalized for the 0 h time point as well as to the vehicle. Three biological and three experimental replicates were used for each condition.

LNCaP [13] = experiment: Colony formation assay; assay type: cell-based, Human; conditions: 3 days exposure, 10 additional days, Hydra 100 µM, Pano 5 nM
WPMY-1 = experiment: Cell viability assay (resazurin), dose-response; assay type: cell-based; conditions: Homo sapiens, WPMY-1, 72 h, WPMY-1, day 3, resazurin
Experimental: as §3, §4

RWPE-1 [14] = experiment: Alkaline comet assay; assay type: cell-based, Human; conditions: Pano 10 nM
Source text: Three biological replicates were used for each condition.

PC-3 [15] = experiment: Colony formation assay; assay type: cell-based, Human; conditions: 3 days exposure, 7 additional days, Hydra 100 µM, Pano 10 nM
Experimental: as §1

RWPE-1 [16] = experiment: Cell viability assay (resazurin), dose-response; assay type: cell-based; conditions: Homo sapiens, RWPE-1, 72 h, RWPE-1, day 3, resazurin
Experimental: as §3, with “assay. The cell viability was evaluated using resazurin ([…] Biotech, Córdoba, Spain) at 0 h and 72 h of treatment. The culture medium was removed, and cells were incubated for three hours in the dark at 37 °C and 5% CO2 with 100 μL of 1:10 resazurin solution in culture medium. […] The OD values were corrected using resazurin solution as blank.” for “assay.”

pEC50 (LNCaP [8])	pEC50 (DU145 [9])	pEC50 (PC-3 [10])	pEC50 (22Rv1)	SMILES	cell invasion (transwell) (DU145 [3])	cell proliferation (BrdU incorporation) (DU145 [12])	pEC50 (WPMY-1)	further results
7.61	8.16	7.54	7.85	Cc1[nH]c2ccccc2c1CCNCc1ccc(/C=C/C(=O)NO)cc1 [Panobinostat]	but not panobinostat, also reduced invasion	but not panobinostat, led to considerable proliferation inhibition	7.62	colony formation (LNCaP [13]): showed a higher impact; bioavailability [5]: 21.4%; DNA damage (tail moment, comet assay) (DU145 [6]; DU145, Hydra 50 µM, Pano 5 nM, alone or combined): increased DNA damage; inhibition at 0.005 µM (DU145 [11]; panobinostat alone at the selected concentration (5 nM, Table 1)): 48.9%; tail moment (comet assay) (RWPE-1 [14]): significantly increased; colony formation (PC-3 [15]): showed a higher impact
2.52 to 2.70	2.52 to 2.70	2.07	2.52 to 2.70	CCCC(CCC)C(=O)O [Valproic acid]	–	–	2.35	pEC50 (RWPE-1 [16]): 2.05

SMILES	pEC50 (LNCaP [8])	pEC50 (DU145 [9])	pEC50 (PC-3 [10])	pEC50 (22Rv1)	cell invasion (transwell) (DU145 [3])	cell proliferation (BrdU incorporation) (DU145 [12])	pEC50 (WPMY-1)	further results
NNc1nncc2ccccc12 [Hydralazine, Hydralazine hydrochloride]	4.06	4.30	3.84	4.14	reduced invasion	considerable proliferation inhibition	–	concentration corresponding to the maximum clinically recommended dose ([1]; bioavailability 16%, fast acetylators): ~0.2 M; concentration corresponding to the maximum clinically recommended dose ([1]; bioavailability 35%, slow acetylators): ~0.44 M; colony formation (clonogenic capacity) (DU145 [2]): almost no colonies were apparent; cell invasion (transwell) (PC-3 [4]): two times higher than that of panobinostat; bioavailability ([5]; fast acetylators): 16%; bioavailability ([5]; slow acetylators): 35%; DNA damage (tail moment, comet assay) (DU145 [6]): increased DNA damage; cell migration (transwell) (DU145 [7]): reduced cell migration; inhibition at 50 µM (DU145 [11]; hydralazine alone at the selected concentration (50 µM, Table 1)): 42.8%

Source: PMC8308508, “Hydralazine and Panobinostat Attenuate Malignant Properties of Prostate Cancer Cell Lines” (Pharmaceuticals, 2021)
